Test results: patent US5756478A, “Method for reducing toxicity of D-nucleoside analogs with L-nucleosides” (priority 1996, dated 1998)
Values joined by “and” are separate entries in the source; they are usually repeats but may differ in a detail not shown here. Equal values may be shown once. “Also recorded” adds a separate entry of the source. Read-outs that look alike come from different tables or passages of the source.

How the values were obtained:
HIV-1IIIB [1] = test: Anti-HIV activity: protection of MT-2 cells infected with HIV-1IIIB (MTT-dye reduction); format: cell-based; details: Human immunodeficiency virus 1, MT2, 120 h, MT-2 cells, HIV-1IIIB, MOI 0.1 TCID50 per cell, 5 days, read-out: ID50 (the source's name)
Method: (§1) The following anti-HIV drugs were tested in combination with the L-nucleosides β-L-5-fluoro-2',b 3'-dideoxycytidine [β-L-FddC or L(-)FddC], β-L-5-fluoro-2',3'-dideoxy-2',3'-didehydrocytidine [β-L-Fd4C or L(-)Fd4C], β-L-5-fluoro-2',3'-dideoxy-3'-thiacytidine [L(-)FTC] and β-L-2',3'-dideoxy-3'-thiacytidine [L(-)SddC or 3TC]: 3'-azido-3'deoxythymidine (AZT) as well as the β-D-2',3'-dideoxynucleosides, for example, β-D-2',3'-dideoxycytidine (ddC), β-D-2',3'-dideoxyadenosine, β-D-2',3'-dideoxyinosine (DDI) and β-D-2',3'-didehydro-3'-deoxy-thymidine (D4T). β-L-FddC and β-L-Fd4C was obtained following the method of Lin, et al., J. Med. Chem., 37, no. 6 (1994). L(-)FTC and L(-)SddC were prepared by standard literature procedures. See, for example, Jeong, et al. J. Med. Chem., 36, 181 (1993). AZT was obtained from Sigma Chemical Co., St. Louis, Mo., USA. ddC was obtained from Aldrich Chemical Co., Milwaukke, Wis. USA. DDI and D4T were obtained from Bristol-Myers Co., Wallingford, Conn., USA.
(§2) The above-mentioned drugs were tested using MT-2 cells infected with HIV-1IIIB as described by JW Mellers, et al., Molecular Pharm. 41, 446-451 (1991) with some modification. Briefly, triplicate wells of 96-well plates containing 1×10^4 MT-2 cells were infected with HIV-1IIIB at a multiplicity of infection (MOI) of 0.1 TCID50 per cell (TCID50 - 50% tissue culture infective dose). Serial dilutions of drug were added immediately after infection. Cell viability was quantitated 5 days after infection by the MTT-dye reduction model (Larder, et al. Antimicrob. Agents Chemother. 34, 436-441, 1990). The percentage of protection was calculated with the formula [(a-b/c-b)×100], in which a=the A595 of drug-treated, virus-infected well, b=A595 of no-drug infected wells, and c=A595 of no-drug, uninfected wells.

HIV-1IIIB [2] = test: Anti-HIV combination of D- and L-nucleosides in HIV-1IIIB infected MT-2 cells (isobolograms); format: cell-based; details: for Effect of L-nucleoside on ID50 of co-administered D-nucleoside: with AZT, D4T, ddC or DDI
Method: as §1, §2
Isobolograms (FIGS. 1-2) were plotted as the percent change in the ID50 of β-L-FddC (L(-)FddC), L(-)FTC, L(-)SddC (FIGS. 1 and 2) β-L-Fd4C (L(-)Fd4C) at various concentrations in combination with AZT, D4T, ddC or DDI at varying concentations on the x-axis and vice versa on the y-axis. Isobolograms (FIG. 3) were plotted as the percent change in the ID50 of β-L-Fd4C (L(-)Fd4C) at various concentrations in combination with AZT or D4T at varying concentrations on the x-axis and vice-versa on the y-axis.

[3] = system: CEM, a Human T-type lymphoblast tumor cell line; test: Cell growth inhibition of CEM cells by D-nucleosides with or without L-nucleosides; format: cell-based
Description: CEM, a Human T-type lymphoblast tumor cell line was used for this study. […] At the end of four days after the addition of the drug, the cell number was estimated by hemocytometer. […] The data, presented below in Table 1-3, are normalized against the control. The parenthetical values represent the expected effect the combined agents should have on cell growth.

[4] = system: Mitochondrial DNA (mtDNA); test: Mitochondrial DNA (mtDNA) content of CEM cells (slot blot); format: cell-based, Human; details: with AZT, ddC, DDI or D4T
Method: To determine the effect of nucleoside analogues on mtDNA content, CEM cells were treated with various concentrations of drug 8 days with medium and drug changes every 2 days. Cells (1×10^5)are washed twice with phosphate buffered […] (PBS) and resuspended in 25 mM Tris (pH 8.0) and 1 mM EDTA. The cells are lysed by 5 cycles of freeze/thaw. RNAase A (DNase free, final concentration of 0.1 mg/ml) is added to the cel ysate and incubated for 3 hours at 50° C. The lysate is brought to a final concentration of 10×SSC, boiled for 10 min., and applied to a nylon membrane presoaked in 2X SSC using a slot blot apparatus. […] All blots are normalized for loading using an Alu probe (ATCC). Blots are exposed to X-ray film and quantitated using a Molecular Dynamics Personal Densitometer SI.

[5] = Homo sapiens, CCRF-CEM, 96 h, single agent, 1.0 uM, day 4, read-out: Day 4 Cell Growth - % of Control
[6] = Homo sapiens, CCRF-CEM, 96 h, single agent, 0.1 uM, day 4, read-out: Day 4 Cell Growth - % of Control

Which IC50 (HIV-1IIIB [1]) does the source give for `Nc1nc(=O)n(C2CCC(CO)O2)cc1F` (single isomer, unassigned) [β-L-FddC, β-L-5-fluoro-2',3'-dideoxycytidine] here?
Its IC50 is 450 nM.

What about the “Effect of L-nucleoside on ID50 of co-administered D-nucleoside” value (HIV-1IIIB [2]) of the same compound?
Its value is “reduces the ID50 value of AZT, ddC, DDI and D4T; also recorded: decreases the ID50 of a co-administered D-nucleoside and vice versa”.

What about the activity at 1 µM [3, 5] of the same compound?
Its activity at 1 µM is 84%.

And the “Effect of L-nucleoside on D-nucleoside inhibition of mitochondrial DNA synthesis” value [4]?
The value was “could prevent the effect of AZT, ddC, DDI or D4T in inhibiting the synthesis of mitochondrial DNA synthesis; also recorded: appears to inhibit the ability of the co-administered D-nucleoside to inhibit the synthesis of mitochondrial DNA”.

How did the IC50 (HIV-1IIIB [1]; unit inferred) turn out when `Nc1nc(=O)n([C@@H]2CS[C@H](CO)O2)cc1F` [L(-)FTC, β-L-5-fluoro-2',3'-dideoxy-3'-thiacytidine] was run?
Its IC50 is 600 nM.

What about the “Effect of L-nucleoside on ID50 of co-administered D-nucleoside” value (HIV-1IIIB [2]) of the same compound?
The value was “reduces the ID50 value of AZT, ddC, DDI and D4T; also recorded: decreases the ID50 of a co-administered D-nucleoside and vice versa”.

What about the activity at 0.1 µM [3, 6] of the same compound?
The activity at 0.1 µM was 104%.

What about the activity at 1 µM [3, 5] of the same compound?
Its activity at 1 µM is 87%.

And the activity at 10 µM ([3]; Homo sapiens, CCRF-CEM, 96 h, single agent, 10 uM, day 4, read-out: Day 4 Cell Growth - % of Control)?
Its activity at 10 µM is 76%.

What about the “Day 4 Cell Growth - % of Control” value ([3]; single agent, 1.0 uM, listed as (-) FTC, 5760 min) of the same compound?
The value was 84 % of Control.

What about the “Day 4 Cell Growth - % of Control” value ([3]; single agent, 1.0 uM, listed as FTC, 5760 min) of the same compound?
The value was 87 % of Control.

And the “Effect of L-nucleoside on D-nucleoside inhibition of mitochondrial DNA synthesis” value [4]?
The value was “could prevent the effect of AZT, ddC, DDI or D4T in inhibiting the synthesis of mitochondrial DNA synthesis”.

`Nc1ccn(C2CCC(CO)O2)c(=O)n1` [ddC, β-D-2',3'-dideoxycytidine] was tested. Which IC50 (HIV-1IIIB [1]) did it give?
Its IC50 is 600 nM.

And the “Nature of the anti-HIV combination effect with L-nucleosides (ID50)” value (HIV-1IIIB [2]; D-nucleoside co-administered with β-L-FddC, L(-)FTC, L(-)SddC or β-L-Fd4C)?
The value was “additively; also recorded: additive”.

And the “Day 4 Cell Growth - % of Control” value ([3]; 0.01 uM, in combination with 1 uM 3TC)?
The value was 86 % of Control.

What about the “Day 4 Cell Growth - % of Control” value ([3]; 0.01 uM, in combination with 1 uM (-) FTC) of the same compound?
Its value is 91 % of Control.

And the “Day 4 Cell Growth - % of Control” value ([3]; 0.01 uM, in combination with 1 uM β-L-FddC)?
Its value is 88 % of Control.

And the “Day 4 Cell Growth - % of Control” value ([3]; 0.1 uM, in combination with 1 uM 3TC)?
The value was 83 % of Control.

What about the “Day 4 Cell Growth - % of Control” value ([3]; 0.1 uM, in combination with 1 uM (-) FTC) of the same compound?
The value was 87 % of Control.

And the “Day 4 Cell Growth - % of Control” value ([3]; 0.1 uM, in combination with 1 uM β-L-FddC)?
Its value is 84 % of Control.

What about the “Day 4 Cell Growth - % of Control” value ([3]; 1.0 uM, in combination with 1 uM 3TC) of the same compound?
Its value is 67 % of Control.

And the “Day 4 Cell Growth - % of Control” value ([3]; 1.0 uM, in combination with 1 uM (-) FTC)?
Its value is 69 % of Control.

What about the “Day 4 Cell Growth - % of Control” value ([3]; 1.0 uM, in combination with 1 uM β-L-FddC) of the same compound?
Its value is 76 % of Control.

What about the activity at 0.01 µM ([3]; Homo sapiens, CCRF-CEM, 96 h, single agent, 0.01 uM, day 4, read-out: Day 4 Cell Growth - % of Control) of the same compound?
Its activity at 0.01 µM is 92%.

What about the activity at 0.1 µM [3, 6] of the same compound?
Its activity at 0.1 µM is 80%.

And the activity at 1 µM [3, 5]?
Its activity at 1 µM is 70%.

What about the “Day 4 Cell Growth - % of Control, expected effect of the combined agents (parenthetical)” value (shortened to “Day 4 Cell Growth - % … (parenthetical)”) ([3]; 0.01 uM with 1 uM β-L-FddC) of the same compound?
The value was 78 % of Control.

And the “Day 4 Cell Growth - % … (parenthetical)” value ([3]; 0.1 uM with 1 uM β-L-FddC)?
Its value is 78 % of Control.

And the “Day 4 Cell Growth - % … (parenthetical)” value ([3]; 1.0 uM with 1 uM β-L-FddC)?
The value was 66 % of Control.

What about the “Day 4 Cell Growth - % of Control” value ([3]; single agent, 0.01 uM, 5760 min) of the same compound?
Its value is 89 % of Control and 93 % of Control.

What about the “Day 4 Cell Growth - % of Control” value ([3]; single agent, 0.1 uM, 5760 min) of the same compound?
The value was 83 % of Control and 93 % of Control.

What about the “Day 4 Cell Growth - % of Control” value ([3]; single agent, 1.0 uM, 5760 min) of the same compound?
Its value is 65 % of Control and 79 % of Control.
